Results on 19 molecules are retold here after BindingDB's records for patent US9624213 (Plexxikon, 2017).

For this assay, the target named is Serine/threonine-protein kinase B-raf [V600E] (Homo sapiens, UniProt P15056, V600E). The experiment in a line: Biochemical activity. As to the method:
Assays for biochemical and cell based activity are known in the art, for example, as described in PCT publication WO 2007/002433, the disclosure of which is hereby incorporated by reference as it relates to such assays. For example, the biochemical activity IC50 values are determined with respect to inhibition of B-Raf V600E kinase activity or p-Erk kinase activity, where inhibition of phosphorylation of a peptide substrate is measured as a function of compound concentration. Compounds to be tested are diluted in dimethyl sulfoxide to a concentration of 0.1 mM. These are serially diluted 15 uL into 30 uL of dimethyl sulfoxide seven times in 96 well plates for a total of 8 dilution points, and for each dilution point 1 uL is added to a well of an assay plate. Plates are prepared such that each well in a 384 well plate contains 1 uL of compound in 10 uL volume with 0.1 ng Raf enzyme (i.e. any of B-Raf, c-Raf-1 or B-Raf V600E, Upstate Biotechnology or prepared by methods known to one of skill in the art), 50 mM HEPES, pH 7.0, 50 mM NaCl, 2 mM MgCl2, 1 mM MnCl2, 0.01% Tween-20, 1 mM DTT, and 100 nM biotin-MEK1 as substrate. The reaction is started with addition of 10 uL of 200 uM ATP (i.e. final 100 uM ATP). After incubation of the kinase reaction for 45 minutes at room temperature, 5 uL/well of Stop Solution is added (25 mM Hepes pH 7.5, 100 mM EDTA, 0.01% BSA with donor beads (Streptavidin coated beads, Perkin Elmer), acceptor beads (Protein A coated, Perkin Elmer), and anti phosphor MEK1/2 antibody (CellSignal), each at final concentration 10 ug/mL).

Usually IC50 stands for the point on the concentration scale where inhibition reaches its midpoint. Lower therefore signals inhibition by little substance.

Serine/threonine-protein kinase B-raf [V600E], sequence (P15056 2-766 V600E limits assumed): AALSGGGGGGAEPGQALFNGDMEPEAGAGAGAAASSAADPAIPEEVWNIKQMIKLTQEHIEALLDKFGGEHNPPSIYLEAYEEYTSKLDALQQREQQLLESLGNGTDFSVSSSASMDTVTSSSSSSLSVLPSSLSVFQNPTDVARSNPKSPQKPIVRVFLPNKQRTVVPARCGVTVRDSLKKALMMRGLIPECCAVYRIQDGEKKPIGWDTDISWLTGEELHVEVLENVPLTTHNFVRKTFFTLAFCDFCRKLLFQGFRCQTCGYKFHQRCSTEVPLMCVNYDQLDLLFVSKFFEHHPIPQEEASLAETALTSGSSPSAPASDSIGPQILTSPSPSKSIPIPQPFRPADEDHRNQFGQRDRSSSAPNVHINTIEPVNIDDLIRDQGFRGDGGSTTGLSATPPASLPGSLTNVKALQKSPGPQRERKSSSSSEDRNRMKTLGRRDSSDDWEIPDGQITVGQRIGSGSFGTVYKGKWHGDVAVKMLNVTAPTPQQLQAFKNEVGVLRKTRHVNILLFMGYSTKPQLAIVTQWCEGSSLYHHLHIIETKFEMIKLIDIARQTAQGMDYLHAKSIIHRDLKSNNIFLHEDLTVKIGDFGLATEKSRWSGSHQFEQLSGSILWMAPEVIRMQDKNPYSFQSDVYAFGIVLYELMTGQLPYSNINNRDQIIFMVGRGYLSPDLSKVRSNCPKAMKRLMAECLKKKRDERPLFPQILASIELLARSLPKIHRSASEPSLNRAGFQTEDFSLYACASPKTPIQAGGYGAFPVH

Molecule `CC(C)CN(C)S(=O)(=O)Nc1cccc(C(=O)c2c[nH]c3ncc(I)cc23)c1F` [US9624213, Compound P-0070] gave an IC50 greater than 100 nM.
`CCN(C)S(=O)(=O)Nc1cccc(C(=O)c2c[nH]c3ncc(-c4ccc(Cl)cc4)cc23)c1F`: the IC50 was less than 100 nM.
On to `CCN(C)S(=O)(=O)Nc1cccc(C(=O)c2c[nH]c3ncc(-c4ccc(F)cc4)cc23)c1F`, for which the IC50 is less than 100 nM.
For `Cc1ccc(-c2cnc3[nH]cc(C(=O)c4cccc(NS(=O)(=O)N(C)C)c4F)c3c2)cn1` [US9624213, Compound P-0029], the IC50 is less than 100 nM.
Under `CCN(C)S(=O)(=O)Nc1ccc(F)c(C(=O)c2c[nH]c3ncc(-c4cnc(OC)nc4)cc23)c1F` stands less than 100 nM.
The molecule `COc1ncc(-c2cnc3[nH]cc(C(=O)c4cccc(NS(=O)(=O)N(C)C5CC5)c4F)c3c2)cn1` returned an IC50 of less than 100 nM.
The same measure for `O=C(c1c(F)ccc(NS(=O)(=O)N2CCCC2)c1F)c1c[nH]c2ncc(I)cc12`: less than 100 nM.
In the case of `CN(C)S(=O)(=O)Nc1cccc(C(=O)c2c[nH]c3ncc(-c4ccc(F)cc4)cc23)c1F`, the IC50 is less than 100 nM.
Molecule `CCN(C)S(=O)(=O)Nc1cccc(C(=O)c2c[nH]c3ncc(-c4cccnc4)cc23)c1F` registered an IC50 of less than 100 nM.
Under `CCN(C)S(=O)(=O)Nc1cccc(C(=O)c2c[nH]c3ncc(-c4ccc(C)nc4)cc23)c1F` stands less than 100 nM; under `CNS(=O)(=O)Nc1cccc(C(=O)c2c[nH]c3ncc(-c4cnc(OC)nc4)cc23)c1F`, greater than 100 nM.
In the case of `CCN(C)S(=O)(=O)Nc1cccc(C(=O)c2c[nH]c3ncc(C#N)cc23)c1F` [US9624213, Compound P-0039], the IC50 was less than 100 nM.
The molecule `CN(C)c1ccc(-c2cnc3[nH]cc(C(=O)c4cccc(NS(=O)(=O)N(C)C)c4F)c3c2)cn1` returned an IC50 of less than 100 nM.
`CCN(C)S(=O)(=O)Nc1cccc(C(=O)c2c[nH]c3ncc(-c4cnc(OC)nc4)cc23)c1F`: the IC50 is less than 100 nM.
Under `CCN(C)S(=O)(=O)Nc1cccc(C(=O)c2c[nH]c3ncc(-c4ccc(C#N)cc4)cc23)c1F` stands less than 100 nM.
Under `CCC(C)S(=O)(=O)Nc1cccc(C(=O)c2c[nH]c3ncc(-c4cnc(C5CC5)nc4)cc23)c1F` (centres undefined) [US9624213, Compound P-0228] stands less than 100 nM; under `CN(C)S(=O)(=O)Nc1cccc(C(=O)c2c[nH]c3ncc(-c4ccc(C#N)cc4)cc23)c1F`, less than 100 nM.
As to `CN(C)c1ncc(-c2cnc3[nH]cc(C(=O)c4c(F)ccc(NS(=O)(=O)N5CCCC5)c4F)c3c2)cn1`, the IC50 is less than 100 nM.
In turn, `COc1ncc(-c2cnc3[nH]cc(C(=O)c4cccc(NS(=O)(=O)N5CCCC5)c4F)c3c2)c(OC)n1` [US9624213, Compound P-0044] came in with an IC50 of less than 100 nM.
